Legend:
[1] = tested on: IL-8; test: IL-8 ELISA in THP-1 cells treated with TNF-α; format: cell-based, human; conditions: 10 μg/ml pre-treatment 30 minutes, 50 ng/ml TNF-α, 24 hours
Method: (§1) The human monocytes, THP-1 cells were seeded on a 24-well plate at a density of 2×10^6 cells/well. After incubation overnight, the cells were pre-treated with the samples at 10 μg/ml for 30 minutes, and treated with 50 ng/ml TNF-α, followed by incubation for 24 hours. The cell incubation medium was obtained, followed by centrifugation at 13,000 rpm for 10 minutes at 4° C., and then the supernatant was separated. ELISA was carried out using IL-1b and IL-8 ELISA kit (R&D system).

[2] = tested on: IGF-1; test: Western blotting of hair growth protein IGF-1; format: cell-based, human; conditions: HFDPC, 0.1-50 μg/ml, 24 hours
Method: (§2) In order to observe the changes in the expression of IGF1, KGF, and Wnt3a, which are proteins involved in the development of hair roots in the human hair follicle dermal papilla cells, the cells were treated with the peptides of the present invention for 24 hours, and then subjected to western blotting using specific antibodies, thereby observing the changes in hair growth-related proteins.
(§3) The cells were stabilized by the incubation overnight, and then treated with the peptides at different concentrations (0.1-50 μg/ml) for 24 hours. The cells were treated with the cell lysis buffer to obtain a lysate, followed by protein quantification, and then western blotting was performed with respect to IGF-1, KGF, and Wnt3a.
(§4) The test was carried out using anti-IGF-1 antibody (Santa Cruz Biotechnology, USA), anti-KGF antibody (Santa Cruz Biotechnology, USA), and anti-Wnt3a antibody (Santa Cruz Biotechnology, USA).

[3] = tested on: human hair follicle germinal matrix cells (HFGMC); test: Cell proliferation assay (SRB), HFGMC; format: cell-based; conditions: 1, 10 and 50 μg/ml, 72 hours
Method: (§5) In order to observe the cell proliferation effect on human hair follicle dermal papilla cells, human hair follicle germinal matrix cells, and human umbilical vein endothelial cells, which are main hair cells, each type of cells were seeded on a 96-well plate at a density of 3×10^3 cells/well, followed by incubation under conditions of 37° C. and 5% CO2 for 24 hours. After the medium was exchanged with the same culture medium completely excluding serum, the cells were treated with the peptides at different concentrations (1 μg/ml, 10 μg/ml, and 50 μg/ml), followed by incubation under the same conditions for 72 hours. After the incubation supernatant was removed, the cells were immobilized using ethanol, and washed three times with phosphate buffer saline (PBS). The wash solution was removed, and the cells were stained through the treatment with colorimetric SRB solution. After the cells were sufficiently washed with 1% acetic acid, the cells were observed using a microscope to observe the state of living cells. The absorbance was read at UV light of 560 nm, thereby measuring the survival conditions of cells

[4] = tested on: Ha3-II and keratin 14; test: RT-PCR of keratinocyte differentiation markers in HaCaT cells; format: cell-based, human; conditions: HaCaT, 0.1, 1 and 10 μg/ml, 24 hours
Method: The cells were treated with the peptides at different concentrations (0.1 μg/ml, 1 μg/ml, and 10 μg/ml), and then incubated in an incubator at 37° C. for 24 hours. […] RT-PCR was carried out using primers of respective markers (Ha3-II and keratin 14) and PCR pre-mix (Intron) to measure the changes in the expression of the markers.
Target-specific primer sequences used in PCR for keratinocyte differentiation markers were as follows: Ha3-II forward primer sequence, 5′-[…]-3′ and Ha3-II reverse primer, 5′-[…]-3′ (annealing temperature, 60° C.); Keratin14 forward primer sequence, 5′-[…]-3′ and Keratin14 reverse primer, 5′-[…]-3′ (annealing temperature, 60° C.)

[5] = tested on: PI3K; test: Western blotting of cell signaling material, PI3K; format: cell-based, human; conditions: HFDPC, 1 and 10 μg/ml, 30 minutes and 60 minutes
Method: (§6) In order to observe the changes in the phosphorylation of ERK and the expression of PI3K, which are main signaling materials involved in cell proliferation in the human hair follicle dermal papilla cells, the cells were treated with the peptides of the present invention for 30 minutes and 60 minutes, and then subjected to western blotting using specific antibodies, thereby observing the pERK and PI3K changes. The test was carried out using anti-pERK antibody (Santa Cruz Biotechnology, USA) and anti-pPI3K antibody (Santa Cruz Biotechnology, USA).
(§7) The cells were treated with the cell lysis buffer to obtain a lysate, followed by protein quantification, and then western blotting was performed with respect to Phospho-ERK (pERK), PI3K, and β-catenin.

[6] = tested on: IL-1β; test: IL-1β ELISA in THP-1 cells treated with TNF-α; format: cell-based, human; conditions: 10 μg/ml pre-treatment 30 minutes, 50 ng/ml TNF-α, 24 hours
Method: as §1

[7] = tested on: human hair follicle dermal papilla cells (HFDPC); test: Cell proliferation assay (SRB), HFDPC; format: cell-based; conditions: 1, 10 and 50 μg/ml, 72 hours
Method: as §5

[8] = tested on: Wnt3a; test: Western blotting of hair growth protein Wnt3a; format: cell-based, human; conditions: HFDPC, 0.1-50 μg/ml, 24 hours
Method: as §2, §3, §4

[9] = tested on: Phospho-PI3K; test: Western blotting using osteoblasts (PI3K phosphorylation); format: cell-based; conditions: mouse osteoblast line, 50 μg/ml, 15 minutes
Method: The cells were treated with the peptides at 50 μg/ml for 15 minutes (positive control: HGF 50 ng/ml). The cells were treated with the cell lysis buffer to obtain a lysate, followed by protein quantification, and then western blotting was performed with respect to Phospho-PI3K (P-PI3K) using anti-pPI3K antibody (Santa Cruz Biotechnology, USA).

[10] = molecular target: T1, HGFR (Homo sapiens, UniProt P08581); test: Receptor binding assay (HGFR), ELISA; conditions: peptide coated 50 μg/25 μl, O.D. 450 nm
T1 construct: purchased R&D Systems
T1 sequence (P08581 25-1390): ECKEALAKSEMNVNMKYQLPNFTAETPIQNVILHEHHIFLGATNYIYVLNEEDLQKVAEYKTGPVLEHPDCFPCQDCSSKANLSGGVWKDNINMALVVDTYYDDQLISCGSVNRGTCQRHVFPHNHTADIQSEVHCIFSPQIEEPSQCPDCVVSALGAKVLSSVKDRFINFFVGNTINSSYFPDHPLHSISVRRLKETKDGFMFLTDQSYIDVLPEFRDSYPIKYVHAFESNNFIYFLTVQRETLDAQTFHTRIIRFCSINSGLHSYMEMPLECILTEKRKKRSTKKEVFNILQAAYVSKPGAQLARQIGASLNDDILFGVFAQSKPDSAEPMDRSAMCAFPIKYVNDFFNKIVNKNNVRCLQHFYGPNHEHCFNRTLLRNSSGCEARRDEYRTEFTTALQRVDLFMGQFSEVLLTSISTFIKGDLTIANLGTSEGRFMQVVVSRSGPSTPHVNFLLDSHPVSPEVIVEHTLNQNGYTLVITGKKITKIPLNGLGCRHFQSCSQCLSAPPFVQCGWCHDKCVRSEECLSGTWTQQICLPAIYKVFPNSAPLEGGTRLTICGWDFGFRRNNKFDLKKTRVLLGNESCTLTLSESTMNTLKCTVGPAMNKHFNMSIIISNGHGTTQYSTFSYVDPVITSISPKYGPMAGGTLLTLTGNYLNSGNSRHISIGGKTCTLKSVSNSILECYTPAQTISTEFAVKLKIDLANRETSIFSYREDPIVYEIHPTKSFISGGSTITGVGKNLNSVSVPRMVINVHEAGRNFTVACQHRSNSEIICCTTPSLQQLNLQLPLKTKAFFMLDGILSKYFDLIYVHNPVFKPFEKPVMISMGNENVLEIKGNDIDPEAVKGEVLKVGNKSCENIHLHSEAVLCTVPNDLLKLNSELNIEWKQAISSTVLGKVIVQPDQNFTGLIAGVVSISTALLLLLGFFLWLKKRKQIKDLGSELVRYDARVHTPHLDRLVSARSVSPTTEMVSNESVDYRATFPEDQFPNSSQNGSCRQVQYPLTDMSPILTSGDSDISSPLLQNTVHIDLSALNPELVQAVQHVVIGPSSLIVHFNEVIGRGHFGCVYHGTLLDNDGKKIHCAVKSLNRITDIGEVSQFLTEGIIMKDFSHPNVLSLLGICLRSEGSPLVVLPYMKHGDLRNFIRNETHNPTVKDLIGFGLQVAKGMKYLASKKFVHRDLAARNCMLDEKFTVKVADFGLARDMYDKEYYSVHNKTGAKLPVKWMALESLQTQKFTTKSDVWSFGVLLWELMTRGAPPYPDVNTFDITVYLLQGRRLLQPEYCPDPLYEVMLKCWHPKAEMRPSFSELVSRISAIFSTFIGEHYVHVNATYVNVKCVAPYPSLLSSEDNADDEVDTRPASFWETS
Method: (§8) On an ELISA plate, 50 μg/25 μl peptide and 25 μl of a coating buffer (20 mM sodium phosphate pH 9.6) were added and mixed, and then incubated at 4° C. overnight. After washing three times with PBST (300 μl), the blocking with 200 μl of a blocking buffer (3% BSA) was carried out at room temperature for 2 hours. After washing three times with PBST (300 μl), HGFR (R&D Systems) was added at 0.5 μg/1 ml per well, followed by incubation at room temperature for 2 hours. After washing three times with PBST (300 μl), anti-human IgG-HRP was diluted at 1:1,000, which was then added at 100 μl per well, followed by incubation at room temperature for 2 hours. After washing three times with PBST (300 μl), 100 μl of TMB solution was added, followed by color development. 50 μl of a stop solution (3 N H2SO4) was added to stop the reaction, and then the absorbance was read at O.D. 450 nm.

[11] = tested on: Phospho-ERK (pERK); test: Western blotting of cell signaling material, ERK phosphorylation; format: cell-based, human; conditions: HFDPC, 1 and 10 μg/ml, 30 minutes and 60 minutes
Method: as §6, §7

[12] = tested on: DKK-1; test: Western blotting of DKK-1 with hair loss causing hormone DHT; format: cell-based, human; conditions: HFDPC, 48 hours
Method: The cells were treated with DHT and the peptides for 48 hours, and then subjected to western blotting with respect to DKK-1 using specific antibodies, thereby observing the expression of DKK-1.
The human hair follicle dermal papilla cells were seeded on a 6-well plate at a density of 1×10^5 cells/well. The cells were stabilized by incubation overnight, and then treated with 5 μg/ml DHT (Sigma Aldrich) together with the peptides at different concentrations (1 μg/ml and 10 μg/ml) for 48 hours. The cells were treated with the cell lysis buffer to obtain a lysate, followed by protein quantification, and then western blotting was performed with respect to DKK-1 using anti-DKK-1 antibody (Santa Cruz Biotechnology, USA).

[13] = tested on: KGF; test: Western blotting of hair growth protein KGF; format: cell-based, human; conditions: HFDPC, 0.1-50 μg/ml, 24 hours
Method: as §2, §3, §4

[14] = tested on: TNFR; test: Receptor binding assay (TNFR), ELISA; conditions: peptide coated 50 μg/25 μl, O.D. 450 nm, positive control TNF-α
[15] = tested on: β-catenin; test: Western blotting of cell signaling material, β-catenin; format: cell-based, human; conditions: HFDPC, 1 and 10 μg/ml, 30 minutes and 60 minutes
Method: as §6, §7

[16] = tested on: human umbilical vein endothelial cells (HUVEC); test: Cell proliferation assay (SRB), HUVEC; format: cell-based; conditions: 1, 10 and 50 μg/ml, 72 hours
Method: as §5

[17] = molecular target: T2, BMPR-IB (Homo sapiens, UniProt O00238); test: Receptor binding assay (BMPR), ELISA; conditions: peptide coated 50 μg/25 μl, O.D. 450 nm, positive control BMP4
T2 construct: purchased R&D Systems
T2 sequence (O00238 14-502): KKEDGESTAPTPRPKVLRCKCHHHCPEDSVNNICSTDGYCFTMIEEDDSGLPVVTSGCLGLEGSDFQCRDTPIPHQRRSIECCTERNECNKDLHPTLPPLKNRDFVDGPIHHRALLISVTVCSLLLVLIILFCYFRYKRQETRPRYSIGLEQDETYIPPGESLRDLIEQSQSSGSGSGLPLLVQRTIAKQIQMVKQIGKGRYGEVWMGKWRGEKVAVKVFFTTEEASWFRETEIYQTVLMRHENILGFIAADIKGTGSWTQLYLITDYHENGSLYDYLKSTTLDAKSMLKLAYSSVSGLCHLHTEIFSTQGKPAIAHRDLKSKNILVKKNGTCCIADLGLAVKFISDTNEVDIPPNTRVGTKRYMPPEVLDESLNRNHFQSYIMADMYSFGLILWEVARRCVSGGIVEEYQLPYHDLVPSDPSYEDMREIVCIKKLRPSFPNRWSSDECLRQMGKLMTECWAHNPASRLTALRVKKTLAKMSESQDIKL
Method: as §8, with “In” for “On”, “BMPR-IB” for “HGFR”, “determined” for “read”

[18] = tested on: Phospho-smad1/5/8; test: Western blotting using osteoblasts (Smad1/5/8 phosphorylation); format: cell-based; conditions: mouse osteoblast line, 50 μg/ml, 15 minutes and 30 minutes
Method: The cells incubated overnight were incubated in a serum-free medium for 24 hours, and then treated with the peptide at 50 μg/ml for 15 minutes and 30 minutes (positive control; BMP4 50 ng/ml). The cells were treated with the cell lysis buffer to obtain a lysate, followed by protein quantification, and then western blotting was performed with respect to Phospho-smad1/5/8 (P-smad1/5/8) using anti-p-smad1/5/8 antibody (Santa Cruz Biotechnology, USA).

Compound	expression of IL-8 increased by TNF-α treatment [1]	expression of IGF-1 [2]	cell proliferation, HFGMC [3]	mRNA expression levels of differentiation markers Ha3-II and keratin 14 [4]	level of PI3K [5]	expression of IL-1β increased by TNF-α treatment [6]	cell proliferation, HFDPC [7]	expression of Wnt3a [8]	phosphorylation of PI3K by HGFR signal stimulation [9]	binding affinity on HGFR [10]	phosphorylation of ERK [11]	expression of DKK-1 increased by DHT ([12]; 5 μg/ml DHT together with peptide 1 and 10 μg/ml)	expression of KGF [13]	binding affinity to TNFR [14]	expression of β-catenin [15]	cell proliferation, HUVEC [16]	binding affinity on BMPR [17]	phosphorylation of Smad1/5/8 by BMPR signal stimulation [18]	expression of DKK-1 ([12]; treatment with DHT 5 μg/ml alone)
NH2-Ala-Cys-Asp-Gly-Arg-Thr-Gln-Ala-Leu-Cys-COOH (H-ACDGRTQALC-OH; cysteine pairing not given here) [SEQ ID NO: 3]	inhibited	increased	increased in a concentration-dependent manner	keratinocyte differentiation promoting effect	increased	inhibited	increased in a concentration-dependent manner	increased	increased	high binding affinity	increased	reduced	increased	high binding affinity	increased	increased in a concentration-dependent manner			
NH2-Ala-Cys-Phe-Thr-Arg-Thr-Ser-His-Ala-Cys-COOH (H-ACFTRTSHAC-OH; cysteine pairing not given here) [SEQ ID NO: 2]	inhibited					inhibited								high binding affinity			high binding affinity	increased	
C[C@]12CCC(=O)C[C@@H]1CC[C@@H]1[C@@H]2CC[C@]2(C)[C@@H](O)CC[C@@H]12 [DHT, dihydrotestosterone, reference compound]																			increased

Reference: US10238710B2, “Peptide having anti-inflammatory, osteogenic and hair growth promoting activities, and use of same” (CAREGEN CO., LTD., priority 2014, dated 2019)
